In US8435980B2 (AbbVie Inc., priority 2009, dated 2013):
pKi: −log10 of the molar value.

Biological target: T1, Cdc7 (BEV coexpressed huCDC7/DBF4) (Homo sapiens, UniProt O00311)
T1 construct: made in house; host or cells: BEV (baculovirus expression vector) co-expression; insect cells are implied but no cell line is named
Test: Cdc7 enzyme inhibition assay ([33P]ATP, biotinylated peptide substrate, FlashPlate)
Assay type: biochemical
Details: Table 3; enzyme inhibition data (Ki)
Experimental: Cdc7 (BEV coexpressed huCDC7/DBF4) is prepared internally. Cdc7 assays are conducted as follows with final concentrations as listed. […] Reactions are quenched after 1 hr by the addition of 90 μL stop buffer (50 mM EDTA, 2M NaCl). […] (Ki) for exemplary compounds.

T1 sequence (O00311 whole entry): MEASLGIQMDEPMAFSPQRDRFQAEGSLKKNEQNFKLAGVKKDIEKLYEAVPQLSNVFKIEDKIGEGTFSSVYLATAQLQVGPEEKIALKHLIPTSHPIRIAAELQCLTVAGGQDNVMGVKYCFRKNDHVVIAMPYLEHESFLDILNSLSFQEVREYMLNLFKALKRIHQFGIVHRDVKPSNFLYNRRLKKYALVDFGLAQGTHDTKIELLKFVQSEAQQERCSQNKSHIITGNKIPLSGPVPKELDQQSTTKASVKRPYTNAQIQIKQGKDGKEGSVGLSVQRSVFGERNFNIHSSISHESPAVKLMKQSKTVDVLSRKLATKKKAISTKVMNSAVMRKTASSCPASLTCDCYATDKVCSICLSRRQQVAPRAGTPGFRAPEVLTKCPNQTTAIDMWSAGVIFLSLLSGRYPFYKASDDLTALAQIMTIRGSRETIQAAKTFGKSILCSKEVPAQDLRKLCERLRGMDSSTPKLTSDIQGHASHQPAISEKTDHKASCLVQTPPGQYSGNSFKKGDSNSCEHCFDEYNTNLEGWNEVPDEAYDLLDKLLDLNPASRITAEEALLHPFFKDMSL
T1 sequence (Q9UBU7 whole entry partner): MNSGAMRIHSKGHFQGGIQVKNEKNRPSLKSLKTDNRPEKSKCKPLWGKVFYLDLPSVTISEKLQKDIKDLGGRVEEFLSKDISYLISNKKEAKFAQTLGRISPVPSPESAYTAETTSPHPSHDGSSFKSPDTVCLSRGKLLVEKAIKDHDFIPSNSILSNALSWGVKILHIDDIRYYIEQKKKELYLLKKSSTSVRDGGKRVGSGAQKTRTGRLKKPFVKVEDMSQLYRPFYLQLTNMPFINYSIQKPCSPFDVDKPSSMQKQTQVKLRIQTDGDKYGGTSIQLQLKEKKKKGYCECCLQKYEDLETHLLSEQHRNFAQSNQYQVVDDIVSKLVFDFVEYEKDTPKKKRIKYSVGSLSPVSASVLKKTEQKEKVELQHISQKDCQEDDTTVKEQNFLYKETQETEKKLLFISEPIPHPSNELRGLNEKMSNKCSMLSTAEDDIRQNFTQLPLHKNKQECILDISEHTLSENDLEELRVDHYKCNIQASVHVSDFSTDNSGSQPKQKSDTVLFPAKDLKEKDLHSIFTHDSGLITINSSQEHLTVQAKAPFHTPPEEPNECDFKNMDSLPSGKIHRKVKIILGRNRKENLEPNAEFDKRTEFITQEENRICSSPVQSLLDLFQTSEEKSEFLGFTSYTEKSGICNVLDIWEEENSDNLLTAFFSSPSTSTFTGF

Structure (SMILES)	pKi
OCCCNc1cc(-c2c[nH]c3ncccc23)cc(Cl)n1 [Example 374, 3-{[6-chloro-4-(1H-pyrrolo[2,3-b]pyridin-3-yl)pyridin-2-yl]amino}propan-1-ol]	> 8.00
Clc1cc(-c2c[nH]c3ncccc23)cc(NCCCN2CCOCC2)n1 [Example 375, 6-chloro-N-[3-(morpholin-4-yl)propyl]-4-(1H-pyrrolo[2,3-b]pyridin-3-yl)pyridin-2-amine]	7.00 to 8.00
Clc1cc(-c2c[nH]c3ncccc23)cc(NCCCn2ccnc2)n1 [Example 376, 6-chloro-N-[3-(1H-imidazol-1-yl)propyl]-4-(1H-pyrrolo[2,3-b]pyridin-3-yl)pyridin-2-amine]	> 8.00
OCCCCCNc1cc(-c2c[nH]c3ncccc23)cc(Cl)n1 [Example 377, 5-{[6-chloro-4-(1H-pyrrolo[2,3-b]pyridin-3-yl)pyridin-2-yl]amino}pentan-1-ol]	> 8.00
Clc1cc(-c2c[nH]c3ncccc23)cc(NCCc2cccnc2)n1 [Example 378, 6-chloro-N-[2-(pyridin-3-yl)ethyl]-4-(1H-pyrrolo[2,3-b]pyridin-3-yl)pyridin-2-amine]	> 8.00
NC1CCC(N2CCC(Nc3cc(-c4c[nH]c5ncccc45)cc(Cl)n3)CC2)CC1 (stereo not shown) [Example 379, N-[1-(4-aminocyclohexyl)piperidin-4-yl]-6-chloro-4-(1H-pyrrolo[2,3-b]pyridin-3-yl)pyridin-2-amine]	> 8.00
CN1CCC(C2CCC(N(C)c3cc(-c4c[nH]c5ncccc45)cc(Cl)n3)CC2)C1 (stereo not shown) [Example 380, 6-chloro-N-methyl-N-[4-(1-methylpyrrolidin-3-yl)cyclohexyl]-4-(1H-pyrrolo[2,3-b]pyridin-3-yl)pyridin-2-amine]	> 8.00
O=C(N[C@H]1CC[C@H](Nc2cc(-c3c[nH]c4ncccc34)cc(Cl)n2)CC1)C1CN(Cc2ccccc2)C1 [Example 381, 1-benzyl-N-(trans-4-{[6-chloro-4-(1H-pyrrolo[2,3-b]pyridin-3-yl)pyridin-2-yl]amino}cyclohexyl)azetidine-3-carboxamide]	> 8.00
COc1cc(Cl)ccc1C(=O)N[C@H]1CC[C@H](Nc2cc(-c3c[nH]c4ncccc34)cc(Cl)n2)CC1 [Example 382, 4-chloro-N-(trans-4-{[6-chloro-4-(1H-pyrrolo[2,3-b]pyridin-3-yl)pyridin-2-yl]amino}cyclohexyl)-2-methoxybenzamide]	> 8.00
O=C(N[C@H]1CC[C@H](Nc2cc(-c3c[nH]c4ncccc34)cc(Cl)n2)CC1)c1cccc(C(F)(F)F)c1 [Example 383, N-(trans-4-{[6-chloro-4-(1H-pyrrolo[2,3-b]pyridin-3-yl)pyridin-2-yl]amino}cyclohexyl)-3-(trifluoromethyl)benzamide]	> 8.00
Clc1cnc2[nH]cc(-c3cc(Cl)nc(NC4CCCCC4)c3)c2c1 [Example 384, 6-chloro-4-(5-chloro-1H-pyrrolo[2,3-b]pyridin-3-yl)-N-cyclohexylpyridin-2-amine]	7.00 to 8.00
O=C(N[C@H]1CC[C@H](Nc2cc(-c3c[nH]c4ncccc34)cc(Cl)n2)CC1)c1cccc(Cl)c1 [Example 385, 3-chloro-N-(trans-4-{[6-chloro-4-(1H-pyrrolo[2,3-b]pyridin-3-yl)pyridin-2-yl]amino}cyclohexyl)benzamide]	> 8.00
COc1ccc(CNc2cc(-c3c[nH]c4ncccc34)cc(Cl)n2)cc1OC [Example 386]	7.00 to 8.00
Clc1cc(-c2c[nH]c3ncccc23)cc(NCCc2ccccn2)n1 [Example 387, 6-chloro-N-[2-(pyridin-2-yl)ethyl]-4-(1H-pyrrolo[2,3-b]pyridin-3-yl)pyridin-2-amine]	> 8.00
Clc1cc(-c2c[nH]c3ncccc23)cc(NCCc2ccccc2)n1 [Example 388, 6-chloro-N-(2-phenylethyl)-4-(1H-pyrrolo[2,3-b]pyridin-3-yl)pyridin-2-amine]	> 8.00
CN1CCN(CCCNc2cc(-c3c[nH]c4ncccc34)cc(Cl)n2)CC1 [Example 389, 6-chloro-N-[3-(4-methylpiperazin-1-yl)propyl]-4-(1H-pyrrolo[2,3-b]pyridin-3-yl)pyridin-2-amine]	7.00 to 8.00
Clc1cc(-c2c[nH]c3ncccc23)cc(NCCOc2ccccc2)n1 [Example 390, 6-chloro-N-(2-phenoxyethyl)-4-(1H-pyrrolo[2,3-b]pyridin-3-yl)pyridin-2-amine]	> 8.00
CN(C)CCCNc1cc(-c2c[nH]c3ncccc23)cc(Cl)n1 [Example 391, N′-[6-chloro-4-(1H-pyrrolo[2,3-b]pyridin-3-yl)pyridin-2-yl]-N,N-dimethylpropane-1,3-diamine]	> 8.00
Clc1cc(-c2c[nH]c3ncccc23)cc(NC2CCN(Cc3ccccc3)C2)n1 (stereo not shown) [Example 392, N-(1-benzylpyrrolidin-3-yl)-6-chloro-4-(1H-pyrrolo[2,3-b]pyridin-3-yl)pyridin-2-amine]	> 8.00

Structure (SMILES)	pKi
O=C(NCCS(=O)(=O)N[C@H]1CC[C@H](Nc2cc(-c3c[nH]c4ncccc34)cc(Cl)n2)CC1)c1ccc(F)cc1F [Example 393, N-{2-[(trans-4-{[6-chloro-4-(1H-pyrrolo[2,3-b]pyridin-3-yl)pyridin-2-yl]amino}cyclohexyl)sulfamoyl]ethyl}-2,4-difluorobenzamide]	> 8.00
O=C(N[C@H]1CC[C@H](Nc2cc(-c3c[nH]c4ncccc34)cc(Cl)n2)CC1)C1CN(Cc2cccc(C(F)(F)F)c2)C1 [Example 394, N-(trans-4-{[6-chloro-4-(1H-pyrrolo[2,3-b]pyridin-3-yl)pyridin-2-yl]amino}cyclohexyl)-1-[3-(trifluoromethyl)benzyl]azetidine-3-carboxamide]	> 8.00
O=C(N[C@H]1CC[C@H](Nc2cc(-c3c[nH]c4ncccc34)cc(Cl)n2)CC1)C1CN(Cc2ccc(Cl)cc2Cl)C1 [Example 395, N-(trans-4-{[6-chloro-4-(1H-pyrrolo[2,3-b]pyridin-3-yl)pyridin-2-yl]amino}cyclohexyl)-1-(2,4-dichlorobenzyl)azetidine-3-carboxamide]	> 8.00
COc1ccc(CNc2cc(-c3c[nH]c4ncccc34)cc(Cl)n2)cc1 [Example 397, 6-chloro-N-(4-methoxybenzyl)-4-(1H-pyrrolo[2,3-b]pyridin-3-yl)pyridin-2-amine]	> 8.00
Oc1ccc(CCNc2cc(-c3c[nH]c4ncccc34)cc(Cl)n2)cc1 [Example 398, 4-(2-{[6-chloro-4-(1H-pyrrolo[2,3-b]pyridin-3-yl)pyridin-2-yl]amino}ethyl)phenol]	> 8.00
Clc1cc(-c2c[nH]c3ncccc23)cc(NCCc2ccc3c(c2)OCO3)n1 [Example 399, N-[2-(1,3-benzodioxol-5-yl)ethyl]-6-chloro-4-(1H-pyrrolo[2,3-b]pyridin-3-yl)pyridin-2-amine]	> 8.00
Clc1cc(-c2c[nH]c3ncccc23)cc(NCc2ccc3c(c2)OCO3)n1 [Example 400, N-(1,3-benzodioxol-5-ylmethyl)-6-chloro-4-(1H-pyrrolo[2,3-b]pyridin-3-yl)pyridin-2-amine]	> 8.00
COc1ccc(CCNc2cc(-c3c[nH]c4ncccc34)cc(Cl)n2)cc1 [Example 401, 6-chloro-N-[2-(4-methoxyphenyl)ethyl]-4-(1H-pyrrolo[2,3-b]pyridin-3-yl)pyridin-2-amine]	> 8.00
Clc1cc(-c2c[nH]c3ncccc23)cc(NC2CCN(Cc3ccccc3)CC2)n1 [Example 402, N-(1-benzylpiperidin-4-yl)-6-chloro-4-(1H-pyrrolo[2,3-b]pyridin-3-yl)pyridin-2-amine]	> 8.00
Clc1cc(-c2c[nH]c3ncccc23)cc(NCCc2ccncc2)n1 [Example 403, 6-chloro-N-[2-(pyridin-4-yl)ethyl]-4-(1H-pyrrolo[2,3-b]pyridin-3-yl)pyridin-2-amine]	> 8.00
Clc1cc(-c2c[nH]c3ncccc23)cc(NC2Cc3ccccc3C2)n1 [Example 404, 6-chloro-N-(2,3-dihydro-1H-inden-2-yl)-4-(1H-pyrrolo[2,3-b]pyridin-3-yl)pyridin-2-amine]	> 8.00
Clc1cc(-c2c[nH]c3ncccc23)cc(NCCc2c[nH]c3ccccc23)n1 [Example 405, 6-chloro-N-[2-(1H-indol-3-yl)ethyl]-4-(1H-pyrrolo[2,3-b]pyridin-3-yl)pyridin-2-amine]	> 8.00
Cc1cccc(CN2CC(C(=O)N[C@H]3CC[C@H](Nc4cc(-c5c[nH]c6ncccc56)cc(Cl)n4)CC3)C2)c1C [Example 406, N-(trans-4-{[6-chloro-4-(1H-pyrrolo[2,3-b]pyridin-3-yl)pyridin-2-yl]amino}cyclohexyl)-1-(2,3-dimethylbenzyl)azetidine-3-carboxamide]	> 8.00
O=C(N[C@H]1CC[C@H](Nc2cc(-c3c[nH]c4ncccc34)cc(Cl)n2)CC1)C1CN(Cc2ccc3cc[nH]c3c2)C1 [Example 407, N-(trans-4-{[6-chloro-4-(1H-pyrrolo[2,3-b]pyridin-3-yl)pyridin-2-yl]amino}cyclohexyl)-1-(1H-indol-6-ylmethyl)azetidine-3-carboxamide]	> 8.00
Clc1cc(-c2c[nH]c3ncccc23)cc(Nc2ccc(OCc3ccccc3)cc2)n1 [Example 408, N-[4-(benzyloxy)phenyl]-6-chloro-4-(1H-pyrrolo[2,3-b]pyridin-3-yl)pyridin-2-amine]	> 8.00
Clc1cc(-c2c[nH]c3ncccc23)cc(NCc2nc3ccccc3[nH]2)n1 [Example 409, N-(1H-benzimidazol-2-ylmethyl)-6-chloro-4-(1H-pyrrolo[2,3-b]pyridin-3-yl)pyridin-2-amine]	> 8.00
Clc1cc(-c2c[nH]c3ncccc23)cc(NCc2ccc3[nH]ccc3c2)n1 [Example 410, 6-chloro-N-(1H-indol-5-ylmethyl)-4-(1H-pyrrolo[2,3-b]pyridin-3-yl)pyridin-2-amine]	> 8.00
COc1ccc(Nc2cc(-c3c[nH]c4ncccc34)cc(Cl)n2)cc1 [Example 411, 6-chloro-N-(4-methoxyphenyl)-4-(1H-pyrrolo[2,3-b]pyridin-3-yl)pyridin-2-amine]	> 8.00
